Data published in patent publication US11098055B2, “Ester ACC inhibitors and uses thereof” (Gilead Apollo, LLC, priority 2015, dated 2021).
≈ marks a conversion by molar mass, not a printed value.

Columns and labels:
C. krusei ATCC 6258 = test: Anti-Fungal (Candida) Activity Assay, broth microtiter MIC; format: cell-based, Candida krusei; settings: Pichia kudriavzevii, ATCC6258, 48 h, 3 replicates, MIC read at 48 h
Procedure: (§1) Compounds of the present invention were evaluated in an Anti-Fungal Activity Assay. An exemplary procedure for the assay, which measures the susceptibility of various Candida species to anti-fungal compounds, follows. Compounds to be tested (including fluconazole and amphotericin B) were dissolved in DMSO to obtain a solution having a concentration of 1 mg/mL. These stock solutions were sterile filtered using a 0.22 um nylon syringe filter, then diluted in sterile water to achieve a final concentration of 128 μg/mL.
(§2) All species were grown from frozen stock by directly plating on to freshly prepared Sabouraud Dextrose agar (BD, Difco) and incubated overnight in ambient air at 35° C. for 24 h. A direct suspension was prepared in RPMI 1640+MOPS (Lonza, Biowhittaker) by taking individual colonies from the overnight cultures using sterile swabs soaked in sterile saline. The concentration of the suspension was determined using pre-determined standard curves. These suspensions were then diluted down to 5×10^3 CFU/mL to achieve a final concentration of 2.5×10^3 CFU/mL once added to the microtiter plate as per CLSI guidelines (M27-A3, Vol. 28 No. 14).
(§3) Broth microtiter MIC challenge plates were prepared following CLSI guidelines (M27-A3, Vol. 28 No. 14). The original CLSI guidelines focused on reading Candida MICs after 48 h of incubation. As reading after only 24 h offers a clear advantage of patient care, QC limits are being established for all drugs at 24 h. That being said there are no known interpretive breakpoints for amphotericin B at 24 h and the current fluconazole interpretive breakpoints are based on a 48 h reading. The MIC for the test compounds were recorded at 48 h. All MIC determinations were achieved by visually comparing the growth found in the antibiotic challenged wells to that of the growth control.

C. albicans ATCC 90028 = test: as above; format: cell-based; settings: ATCC90028, 48 h, 3 replicates, MIC read at 48 h
Procedure: as §1, §2, §3

[1] = tested on: C. parapsilosis ATCC 22019; test: as above; format: cell-based; settings: Lodderomyces parapsilosis, ATCC22019, 48 h, 3 replicates, MIC read at 48 h
Procedure: as §1, §2, §3

hACC2 = hACC2 (Homo sapiens, UniProt O00763); test: In vitro ACC2 inhibition assay (ADP-Glo), human ACC2; format: biochemical
Procedure: An exemplary procedure for the in vitro ACC inhibition assay, which can be used to determine the inhibitory action of compounds of the invention toward either human (hACC2) or fungal (fACC2) ACC2, follows. The ADP-Glo™ Kinase Assay kit from Promega was used. The ADP-Glo™ Kinase Assay is a luminescent ADP detection assay to measure enzymatic activity by quantifying the amount of ADP produced during an enzyme reaction. The assay is performed in two steps; first, after the enzyme reaction, an equal volume of ADP-Glo™ Reagent is added to terminate the reaction and deplete the remaining ATP. Second, the Kinase Detection Reagent is added to simultaneously convert ADP to ATP and allow the newly synthesized ATP to be measured using a luciferase/luciferin reaction. Luminescence can be correlated to ADP concentrations by using an ATP-to-ADP conversion curve. The detailed procedure is as follows. 50 μL of the compound being tested (600 μM in DMSO) was added to a 384-well dilution plate. The compound was diluted 1:3 in succession in DMSO for each row for 11 wells. 0.5 μL ACC2 working solution was added to 384-well white Optiplate assay plate. 0.5 μL diluted compound solution in each column from step 2 was added to assay plate, each row containing 2 replicates. For the last 2 rows, 0.5 μL negative control (DMSO) was added in one row and 0.5 μL positive control (compound I-97) in the other. The plates were incubated at room temperature for 15 minutes. 5 μL substrate working solution was added to each well to initiate reaction. Final ACC2 reaction concentrations consist of: 5 nM ACC2, 20 μM ATP, 20 μM acetyl-CoA, 12 mM NaHCO3, 0.01% Brij35, 2 mM DTT, 5% DMSO, test compound concentrations: 30 μM, 10 μM, 3.33 μM, 1.11 μM, 0.37 μM, 0.123 μM, 0.0411 μM, 0.0137 μM, 0.00457 μM, 0.00152 μM, and 0.00051 μM. Plates were incubated at room temperature for 60 minutes. 10 μL ADP glo reagent was added. Plates were incubated at room temperature for 40 minutes. 20 μL kinase detection reagent was added. Plates were incubated at room temperature for 40 minutes, and then read on a Perkin Elmer EnVision 2104 plate reader for luminescence as Relative Light Units (RLU).
Data for each concentration, as well as the positive and negative controls, were averaged, and the standard deviation calculated. Percent inhibition was calculated by the formula: 100×(average negative control−compound)/(average negative control−average positive control). The IC50 for each compound was calculated by fitting the data with a non-linear regression equation: Y=Bottom+(Top−Bottom)/(1+10^((Log IC50−X)*HillSlope)), where X is the log of compound concentration and Y is percent inhibition.

hACC2, sequence (O00763 whole entry): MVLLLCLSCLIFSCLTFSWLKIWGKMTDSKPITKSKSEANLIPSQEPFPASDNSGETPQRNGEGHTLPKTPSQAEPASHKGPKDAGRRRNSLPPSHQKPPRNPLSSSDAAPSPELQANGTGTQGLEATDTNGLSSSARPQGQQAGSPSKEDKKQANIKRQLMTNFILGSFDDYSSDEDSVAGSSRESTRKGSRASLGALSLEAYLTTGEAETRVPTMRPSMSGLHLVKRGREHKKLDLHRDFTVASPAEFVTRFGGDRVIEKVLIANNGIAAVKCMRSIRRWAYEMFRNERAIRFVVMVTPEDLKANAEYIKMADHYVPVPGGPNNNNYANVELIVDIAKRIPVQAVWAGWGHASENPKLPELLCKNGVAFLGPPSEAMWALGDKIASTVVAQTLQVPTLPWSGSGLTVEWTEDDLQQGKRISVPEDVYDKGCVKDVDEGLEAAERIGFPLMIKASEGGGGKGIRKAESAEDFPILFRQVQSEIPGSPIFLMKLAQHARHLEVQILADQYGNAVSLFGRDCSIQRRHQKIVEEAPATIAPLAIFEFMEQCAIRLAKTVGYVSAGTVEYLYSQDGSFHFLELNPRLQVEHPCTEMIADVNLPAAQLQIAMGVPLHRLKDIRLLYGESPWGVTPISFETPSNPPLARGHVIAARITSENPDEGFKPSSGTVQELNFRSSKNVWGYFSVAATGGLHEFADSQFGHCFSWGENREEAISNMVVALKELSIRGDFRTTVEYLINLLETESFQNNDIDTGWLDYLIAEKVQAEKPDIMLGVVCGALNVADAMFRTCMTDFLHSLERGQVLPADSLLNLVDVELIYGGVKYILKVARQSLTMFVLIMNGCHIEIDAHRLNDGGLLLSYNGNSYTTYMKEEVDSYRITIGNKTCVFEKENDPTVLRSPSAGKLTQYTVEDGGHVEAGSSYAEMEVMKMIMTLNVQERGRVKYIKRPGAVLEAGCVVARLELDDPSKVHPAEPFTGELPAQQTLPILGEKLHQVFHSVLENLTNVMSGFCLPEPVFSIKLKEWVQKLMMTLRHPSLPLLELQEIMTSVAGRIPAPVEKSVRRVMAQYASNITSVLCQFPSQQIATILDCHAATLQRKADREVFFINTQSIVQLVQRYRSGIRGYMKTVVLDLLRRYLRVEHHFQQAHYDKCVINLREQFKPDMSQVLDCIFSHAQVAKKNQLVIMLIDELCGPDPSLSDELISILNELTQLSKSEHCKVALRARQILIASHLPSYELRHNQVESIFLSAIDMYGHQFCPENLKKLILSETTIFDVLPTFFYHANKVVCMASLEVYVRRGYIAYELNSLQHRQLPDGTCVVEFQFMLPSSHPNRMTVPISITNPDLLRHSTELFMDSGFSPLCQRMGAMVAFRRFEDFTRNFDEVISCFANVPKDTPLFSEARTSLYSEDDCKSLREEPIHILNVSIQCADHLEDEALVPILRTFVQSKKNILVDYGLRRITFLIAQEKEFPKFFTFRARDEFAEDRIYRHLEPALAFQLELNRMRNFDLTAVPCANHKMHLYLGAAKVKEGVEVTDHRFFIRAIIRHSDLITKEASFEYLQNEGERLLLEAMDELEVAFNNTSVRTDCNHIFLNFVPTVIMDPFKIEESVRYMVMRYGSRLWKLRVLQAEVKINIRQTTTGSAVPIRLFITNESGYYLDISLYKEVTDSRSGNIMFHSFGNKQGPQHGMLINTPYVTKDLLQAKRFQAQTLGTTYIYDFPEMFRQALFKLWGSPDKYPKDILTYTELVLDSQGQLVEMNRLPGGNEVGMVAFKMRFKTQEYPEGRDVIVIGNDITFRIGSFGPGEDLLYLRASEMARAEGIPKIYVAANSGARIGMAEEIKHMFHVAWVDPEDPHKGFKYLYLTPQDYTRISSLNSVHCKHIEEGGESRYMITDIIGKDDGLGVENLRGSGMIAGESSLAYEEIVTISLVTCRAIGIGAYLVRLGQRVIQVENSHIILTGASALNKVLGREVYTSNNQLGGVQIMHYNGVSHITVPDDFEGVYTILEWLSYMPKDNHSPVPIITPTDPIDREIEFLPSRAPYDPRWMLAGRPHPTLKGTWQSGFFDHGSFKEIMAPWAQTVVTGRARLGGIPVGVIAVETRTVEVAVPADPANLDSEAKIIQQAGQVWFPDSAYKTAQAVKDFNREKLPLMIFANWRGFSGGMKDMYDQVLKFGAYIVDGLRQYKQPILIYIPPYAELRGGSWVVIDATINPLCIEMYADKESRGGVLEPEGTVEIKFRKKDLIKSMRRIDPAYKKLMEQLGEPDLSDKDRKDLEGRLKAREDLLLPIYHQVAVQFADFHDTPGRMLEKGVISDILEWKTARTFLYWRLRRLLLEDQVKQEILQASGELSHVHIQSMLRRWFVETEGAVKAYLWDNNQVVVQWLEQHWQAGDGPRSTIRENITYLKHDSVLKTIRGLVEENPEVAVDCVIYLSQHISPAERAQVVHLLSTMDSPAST

SMILES	MIC (C. krusei ATCC 6258; Table 3b (additional results)) [µg/mL]	MIC (C. albicans ATCC 90028; Table 3b (additional results)) [µg/mL]	MIC ([1]; Table 3b (additional results)) [µg/mL]	IC50 (hACC2; Table 2b (additional results)) [nM]	MIC (C. krusei ATCC 6258; Table 3a) [µg/mL]	MIC (C. albicans ATCC 90028; Table 3a) [µg/mL]	MIC ([1]; Table 3a) [µg/mL]	IC50 (hACC2; Table 2a) [nM]
CCOC(=O)c1sc2c(c1C)c(=O)n(C(C)(C)C(=O)NC(C)C)c(=O)n2C[C@H](OCC#N)c1cc(F)ccc1OC [Compound I-33, ethyl (R)-1-(2-(cyanomethoxy)-2-(5-fluoro-2-methoxy-phenyl)ethyl)-3-(1-(isopropylamino)-2-methyl-1-oxopropan-2-yl)-5-methyl-2,4-dioxo-1,2,3,4-tetrahydrothieno[2,3-d]pyrimidine-6-carboxylate]	2.1 to 4 (≈ 3.57 to 6.8 µM)	0.25 to 1 (≈ 0.425 to 1.7 µM)	2.1 to 4 (≈ 3.57 to 6.8 µM)	3 to 10				
CCOC(=O)c1sc2c(c1C)c(=O)n(C(C)(C)C(=O)N1CCCC1)c(=O)n2C[C@H](OCCOC)c1cc(F)ccc1OC [Compound I-13, (R)-ethyl 1-(2-(5-fluoro-2-methoxyphenyl)-2-(2-methoxy-ethoxy)ethyl)-5-methyl-3-(2-methyl-1-oxo-1-(pyrrolidin-1-yl)propan-2-yl)-2,4-dioxo-1,2,3,4-tetrahydrothieno[2,3-d]pyrimidine-6-carboxylate]	2.1 to 4 (≈ 3.39 to 6.45 µM)	2.1 to 4 (≈ 3.39 to 6.45 µM)	2.1 to 4 (≈ 3.39 to 6.45 µM)		> 4.1	> 4.1	> 4.1	10 to 40
CCOC(=O)c1sc2c(c1C)c(=O)n(C(C)(C)C(=O)NC(C)C)c(=O)n2C[C@H](OCC(C)(C)C#N)c1cc(F)ccc1OC [Compound I-37, ethyl (R)-1-(2-(2-cyano-2-methylpropoxy)-2-(5-fluoro-2-methoxyphenyl)ethyl)-3-(1-(isopropylamino)-2-methyl-1-oxopropan-2-yl)-5-methyl-2,4-dioxo-1,2,3,4-tetrahydrothieno[2,3-d]pyrimidine-6-carboxylate]	2.1 to 4 (≈ 3.33 to 6.34 µM)	0.25 to 1 (≈ 0.396 to 1.59 µM)	2.1 to 4 (≈ 3.33 to 6.34 µM)	10 to 40				
CCNC(=O)[C@H](C)n1c(=O)c2c(C)c(C(=O)OCC)sc2n(C[C@H](OCCC#N)c2cc(F)ccc2OC)c1=O [Compound I-42, ethyl 1-((R)-2-(2-cyanoethoxy)-2-(5-fluoro-2-methoxyphenyl)ethyl)-3-((S)-1-(ethylamino)-1-oxopropan-2-yl)-5-methyl-2,4-dioxo-1,2,3,4-tetrahydrothieno[2,3-d]pyrimidine-6-carboxylate]	2.1 to 4 (≈ 3.65 to 6.96 µM)	2.1 to 4 (≈ 3.65 to 6.96 µM)	2.1 to 4 (≈ 3.65 to 6.96 µM)	3 to 10				
CCOC(=O)c1sc2c(c1C)c(=O)n(C(C)(C)C(=O)N1CCCCC1)c(=O)n2C[C@H](OC1CCOCC1)c1ccccc1OC [Compound I-2, ethyl (R)-1-(2-(2-methoxyphenyl)-2-((tetrahydro-2H-pyran-4-yl)oxy)ethyl)-5-methyl-3-(2-methyl-1-oxo-1-(piperidin-1-yl)propan-2-yl)-2,4-dioxo-1,2,3,4-tetrahydrothieno[2,3-d]pyrimidine-6-carboxylate]	0.25 to 1 (≈ 0.39 to 1.56 µM)	0.25 to 1 (≈ 0.39 to 1.56 µM)	0.25 to 1 (≈ 0.39 to 1.56 µM)	10 to 40	0.25 to 1 (≈ 0.39 to 1.56 µM)	0.25 to 1 (≈ 0.39 to 1.56 µM)	0.25 to 1 (≈ 0.39 to 1.56 µM)	10 to 40
CCNC(=O)[C@@H](C)n1c(=O)c2c(C)c(C(=O)OCC)sc2n(C[C@H](OCCC#N)c2cc(F)ccc2OC)c1=O [Compound I-41, ethyl 1-((R)-2-(2-cyanoethoxy)-2-(5-fluoro-2-methoxy-phenyl)ethyl)-3-((R)-1-(ethylamino)-1-oxopropan-2-yl)-5-methyl-2,4-dioxo-1,2,3,4-tetrahydrothieno[2,3-d]pyrimidine-6-carboxylate]	2.1 to 4 (≈ 3.65 to 6.96 µM)	2.1 to 4 (≈ 3.65 to 6.96 µM)	2.1 to 4 (≈ 3.65 to 6.96 µM)	10 to 40				
CCOC(=O)c1sc2c(c1C)c(=O)n(C(C)(C)C(N)=O)c(=O)n2C[C@H](OCCC#N)c1cc(F)ccc1OC [Compound I-14, (R)-ethyl 3-(1-amino-2-methyl-1-oxopropan-2-yl)-1-(2-(2-cyanoethoxy)-2-(5-fluoro-2-methoxyphenyl)ethyl)-5-methyl-2,4-dioxo-1,2,3,4-tetrahydro-thieno[2,3-d]pyrimidine-6-carboxylate]	2.1 to 4 (≈ 3.75 to 7.14 µM)	2.1 to 4 (≈ 3.75 to 7.14 µM)	1.1 to 2 (≈ 1.96 to 3.57 µM)		> 4.1	> 4.1	> 4.1	3 to 10
